From ChEMBL document CHEMBL4219190, “Studies on synthesis of novel pyrido[2,3-d]pyrimidine derivatives, evaluation of their antimicrobial activity and molecular docking” (Bioorg Med Chem Lett, 2018)
Calls of active or inactive are those of the source.

What was measured:
Pseudomonas aeruginosa [1] = experiment: Antibacterial activity against Pseudomonas aeruginosa MTCC 2453 after 24 hrs by well diffusion method; type: functional
Pichia sporocuriosa [2] = experiment: Antifungal activity against Issatchenkia hanoiensis MTCC 4755 after 24 hrs by well diffusion method; type: functional; conditions: MTCC 4755, 24 h
[Candida] aaseri [3] = Antifungal activity against Candida aaseri MTCC 1962 after 24 hrs by well diffusion method; type: functional; conditions: Yamadazyma aaseri, MTCC 1962, 24 h
Candida albicans [4] = experiment: Fungicidal activity against Candida albicans MTCC 227 incubated for 24 hrs followed by transfer of microbial suspension to Sabouraud dextrose agar plates and measured after 24 hrs post transfer; type: functional
Escherichia coli [5] = experiment: Bactericidal activity against Escherichia coli MTCC 739 incubated for 24 hrs followed by transfer of microbial suspension to Mueller Hinton agar plates and measured after 24 hrs post transfer; type: functional
Bacillus subtilis [6] = experiment: Antibiofilm activity against Bacillus subtilis MTCC 121 after 24 hrs by crystal violet staining-based assay; type: functional, organism-based
Micrococcus luteus [7] = experiment: Bactericidal activity against Micrococcus luteus MTCC 2470 incubated for 24 hrs followed by transfer of microbial suspension to Mueller Hinton agar plates and measured after 24 hrs post transfer; type: functional
Bacillus subtilis [8] = experiment: Antibacterial activity against Bacillus subtilis MTCC 121 after 24 hrs by well diffusion method; type: functional
Candida albicans [9] = experiment: Fungicidal activity against Candida albicans MTCC 3958 incubated for 24 hrs followed by transfer of microbial suspension to Sabouraud dextrose agar plates and measured after 24 hrs post transfer; type: functional
Raoultella planticola [10] = experiment: Antibacterial activity against Klebsiella planticola MTCC 530 after 24 hrs by well diffusion method; type: functional
Bacillus subtilis [11] = experiment: Bactericidal activity against Bacillus subtilis MTCC 121 incubated for 24 hrs followed by transfer of microbial suspension to Mueller Hinton agar plates and measured after 24 hrs post transfer; type: functional
Candida albicans [12] = experiment: Fungicidal activity against Candida albicans MTCC 3017 incubated for 24 hrs followed by transfer of microbial suspension to Sabouraud dextrose agar plates and measured after 24 hrs post transfer; type: functional; conditions: MTCC 3017, 24 h
Candida albicans [13] = experiment: Antifungal activity against Candida albicans MTCC 227 after 24 hrs by well diffusion method; type: functional
Candida albicans [14] = experiment: Antifungal activity against Candida albicans MTCC 1637 after 24 hrs by well diffusion method; type: functional
Candida albicans [15] = experiment: Antifungal activity against Candida albicans MTCC 854 after 24 hrs by well diffusion method; type: functional
Raoultella planticola [16] = experiment: Antibiofilm activity against Klebsiella planticola MTCC 530 after 24 hrs by crystal violet staining-based assay; type: functional, organism-based
Candida albicans [17] = experiment: Antifungal activity against Candida albicans MTCC 183 after 24 hrs by well diffusion method; type: functional; conditions: MTCC 183, 24 h
Raoultella planticola [18] = experiment: Bactericidal activity against Klebsiella planticola MTCC 530 incubated for 24 hrs followed by transfer of microbial suspension to Mueller Hinton agar plates and measured after 24 hrs post transfer; type: functional
Candida albicans [19] = experiment: Antifungal activity against Candida albicans MTCC 3958 after 24 hrs by well diffusion method; type: functional
[Candida] aaseri [20] = Fungicidal activity against Candida aaseri MTCC 1962 incubated for 24 hrs followed by transfer of microbial suspension to Sabouraud dextrose agar plates and measured after 24 hrs post transfer; type: functional; conditions: Yamadazyma aaseri, MTCC 1962, 24 h
Candida albicans [21] = experiment: Fungicidal activity against Candida albicans MTCC 3018 incubated for 24 hrs followed by transfer of microbial suspension to Sabouraud dextrose agar plates and measured after 24 hrs post transfer; type: functional
Candida albicans [22] = experiment: Antifungal activity against Candida albicans MTCC 3017 after 24 hrs by well diffusion method; type: functional; conditions: MTCC 3017, 24 h
Pichia sporocuriosa [23] = experiment: Fungicidal activity against Issatchenkia hanoiensis MTCC 4755 incubated for 24 hrs followed by transfer of microbial suspension to Sabouraud dextrose agar plates and measured after 24 hrs post transfer; type: functional; conditions: MTCC 4755, 24 h
Candida albicans [24] = experiment: Antifungal activity against Candida albicans MTCC 4748 after 24 hrs by well diffusion method; type: functional; conditions: MTCC 4748, 24 h
Pseudomonas aeruginosa [25] = experiment: Bactericidal activity against Pseudomonas aeruginosa MTCC 2453 incubated for 24 hrs followed by transfer of microbial suspension to Mueller Hinton agar plates and measured after 24 hrs post transfer; type: functional
Candida albicans [26] = experiment: Antifungal activity against Candida albicans MTCC 3018 after 24 hrs by well diffusion method; type: functional
Candida albicans [27] = experiment: Fungicidal activity against Candida albicans MTCC 183 incubated for 24 hrs followed by transfer of microbial suspension to Sabouraud dextrose agar plates and measured after 24 hrs post transfer; type: functional; conditions: MTCC 183, 24 h
Candida albicans [28] = experiment: Fungicidal activity against Candida albicans MTCC 7315 incubated for 24 hrs followed by transfer of microbial suspension to Sabouraud dextrose agar plates and measured after 24 hrs post transfer; type: functional; conditions: MTCC 7315, 24 h
Staphylococcus aureus [29] = experiment: Bactericidal activity against Staphylococcus aureus MTCC 96 incubated for 24 hrs followed by transfer of microbial suspension to Mueller Hinton agar plates and measured after 24 hrs post transfer; type: functional; conditions: MTCC 96, 24 h
Candida albicans [30] = experiment: Fungicidal activity against Candida albicans MTCC 1637 incubated for 24 hrs followed by transfer of microbial suspension to Sabouraud dextrose agar plates and measured after 24 hrs post transfer; type: functional
Escherichia coli [31] = experiment: Antibacterial activity against Escherichia coli MTCC 739 after 24 hrs by well diffusion method; type: functional
Candida parapsilosis [32] = experiment: Fungicidal activity against Candida parapsilosis MTCC 1744 incubated for 24 hrs followed by transfer of microbial suspension to Sabouraud dextrose agar plates and measured after 24 hrs post transfer; type: functional
Candida albicans [33] = experiment: Antifungal activity against Candida albicans MTCC 7315 after 24 hrs by well diffusion method; type: functional; conditions: MTCC 7315, 24 h
Nakaseomyces glabratus [34] = experiment: Fungicidal activity against Candida glabrata MTCC 3019 incubated for 24 hrs followed by transfer of microbial suspension to Sabouraud dextrose agar plates and measured after 24 hrs post transfer; type: functional; conditions: MTCC 3019, 24 h
Candida albicans [35] = experiment: Fungicidal activity against Candida albicans MTCC 854 incubated for 24 hrs followed by transfer of microbial suspension to Sabouraud dextrose agar plates and measured after 24 hrs post transfer; type: functional
Pichia kudriavzevii [36] = experiment: Antifungal activity against Candida krusei MTCC 3020 after 24 hrs by well diffusion method; type: functional; conditions: MTCC 3020, 24 h
Candida parapsilosis [37] = experiment: Antifungal activity against Candida parapsilosis MTCC 1744 after 24 hrs by well diffusion method; type: functional
Nakaseomyces glabratus [38] = experiment: Antifungal activity against Candida glabrata MTCC 3019 after 24 hrs by well diffusion method; type: functional; conditions: MTCC 3019, 24 h
Staphylococcus aureus [39] = experiment: Antibiofilm activity against Staphylococcus aureus MTCC 96 after 24 hrs by crystal violet staining-based assay; type: functional, organism-based; conditions: Staphylococcus aureus, MTCC 96, 24 h; read-out: IC50
Staphylococcus aureus [40] = experiment: Bactericidal activity against Staphylococcus aureus MLS16 MTCC 2940 incubated for 24 hrs followed by transfer of microbial suspension to Mueller Hinton agar plates and measured after 24 hrs post transfer; type: functional
Pseudomonas aeruginosa [41] = experiment: Antibiofilm activity against Pseudomonas aeruginosa MTCC 2453 after 24 hrs by crystal violet staining-based assay; type: functional, organism-based
Pichia kudriavzevii [42] = experiment: Fungicidal activity against Candida krusei MTCC 3020 incubated for 24 hrs followed by transfer of microbial suspension to Sabouraud dextrose agar plates and measured after 24 hrs post transfer; type: functional; conditions: MTCC 3020, 24 h
Staphylococcus aureus [43] = experiment: Antibiofilm activity against Staphylococcus aureus MLS16 MTCC 2940 after 24 hrs by crystal violet staining-based assay; type: functional, organism-based
Staphylococcus aureus [44] = experiment: Antibacterial activity against Staphylococcus aureus MTCC 96 after 24 hrs by well diffusion method; type: functional; conditions: MTCC 96, 24 h
Candida albicans [45] = experiment: Fungicidal activity against Candida albicans MTCC 4748 incubated for 24 hrs followed by transfer of microbial suspension to Sabouraud dextrose agar plates and measured after 24 hrs post transfer; type: functional; conditions: MTCC 4748, 24 h
Staphylococcus aureus [46] = experiment: Antibacterial activity against Staphylococcus aureus MLS16 MTCC 2940 after 24 hrs by well diffusion method; type: functional
Micrococcus luteus [47] = experiment: Antibacterial activity against Micrococcus luteus MTCC 2470 after 24 hrs by well diffusion method; type: functional

O=C(NCc1ccccc1)c1nc(-c2ccccc2)c2c(C(F)(F)F)cc(-c3ccccc3)nc2n1
62.5 µg/mL: MFC (Candida albicans [12]) | MFC ([Candida] aaseri [20]) | MFC (Pichia sporocuriosa [23]) | MIC (Candida albicans [24]) | MFC (Candida albicans [27]) | MFC (Candida albicans [28]) | MFC (Candida parapsilosis [32]; Lodderomyces parapsilosis, MTCC 1744, 24 h) | MIC (Candida albicans [33]) | MFC (Candida albicans [45])
21.6 µg/mL: IC50 (Staphylococcus aureus [39])
inactive: MIC (Pseudomonas aeruginosa [1]) | MFC (Candida albicans [4]) | MBC (Escherichia coli [5]) | MBC (Micrococcus luteus [7]) | MIC (Bacillus subtilis [8]) | MFC (Candida albicans [9]) | MIC (Raoultella planticola [10]) | MBC (Bacillus subtilis [11]) | MIC (Candida albicans [13]) | MIC (Candida albicans [14]) | MIC (Candida albicans [15]) | MBC (Raoultella planticola [18]) | MIC (Candida albicans [19]) | MFC (Candida albicans [21]) | MBC (Pseudomonas aeruginosa [25]) | MIC (Candida albicans [26]) | MFC (Candida albicans [30]) | MIC (Escherichia coli [31]) | MFC (Candida albicans [35]) | MBC (Staphylococcus aureus [40]) | MIC (Staphylococcus aureus [46]) | MIC (Micrococcus luteus [47])
15.6 µg/mL: MIC (Pichia kudriavzevii [36]) | MIC (Nakaseomyces glabratus [38])
Not Active: IC50 (Bacillus subtilis [6]) | IC50 (Raoultella planticola [16]) | IC50 (Pseudomonas aeruginosa [41]) | IC50 (Staphylococcus aureus [43])
31.2 µg/mL: MIC (Pichia sporocuriosa [2]) | MIC ([Candida] aaseri [3]) | MIC (Candida albicans [17]) | MIC (Candida albicans [22]) | MBC (Staphylococcus aureus [29]) | MFC (Nakaseomyces glabratus [34]) | MIC (Candida parapsilosis [37]; MTCC 1744, 24 h) | MFC (Pichia kudriavzevii [42]) | MIC (Staphylococcus aureus [44])

O=C(NCCO)c1nc(-c2ccccc2)c2c(C(F)(F)F)cc(-c3ccccc3)nc2n1
21.6 µg/mL: IC50 (Staphylococcus aureus [39])
15.6 µg/mL: MIC (Pichia sporocuriosa [2]) | MFC (Pichia sporocuriosa [23]) | MIC (Candida albicans [26]; MTCC 3018, 24 h) | MIC (Nakaseomyces glabratus [38])
62.5 µg/mL: MFC (Candida albicans [9]; MTCC 3958, 24 h) | MFC (Candida albicans [12]) | MIC (Candida albicans [24]) | MFC (Candida albicans [27]) | MFC (Candida albicans [28]) | MFC (Pichia kudriavzevii [42]) | MFC (Candida albicans [45])
Not Active: IC50 (Bacillus subtilis [6]) | IC50 (Raoultella planticola [16]) | IC50 (Pseudomonas aeruginosa [41]) | IC50 (Staphylococcus aureus [43])
inactive: MIC (Pseudomonas aeruginosa [1]) | MFC (Candida albicans [4]) | MBC (Escherichia coli [5]) | MBC (Micrococcus luteus [7]) | MIC (Bacillus subtilis [8]) | MIC (Raoultella planticola [10]) | MBC (Bacillus subtilis [11]) | MIC (Candida albicans [13]) | MIC (Candida albicans [14]) | MIC (Candida albicans [15]) | MBC (Raoultella planticola [18]) | MBC (Pseudomonas aeruginosa [25]) | MFC (Candida albicans [30]) | MIC (Escherichia coli [31]) | MFC (Candida parapsilosis [32]) | MFC (Candida albicans [35]) | MIC (Candida parapsilosis [37]) | MBC (Staphylococcus aureus [40]) | MIC (Staphylococcus aureus [46]) | MIC (Micrococcus luteus [47])
62.4 µg/mL: MBC (Staphylococcus aureus [29])
31.2 µg/mL: MIC ([Candida] aaseri [3]) | MIC (Candida albicans [17]) | MIC (Candida albicans [19]; MTCC 3958, 24 h) | MFC ([Candida] aaseri [20]) | MFC (Candida albicans [21]; MTCC 3018, 24 h) | MIC (Candida albicans [22]) | MIC (Candida albicans [33]) | MFC (Nakaseomyces glabratus [34]) | MIC (Pichia kudriavzevii [36]) | MIC (Staphylococcus aureus [44])
